The values that follow come from US10472347B2, “Aminopyrazine compounds with A2A antagonist properties” (Merck Sharp & Dohme Corp., priority 2014, dated 2019).

T1 sequence (P29274 whole entry): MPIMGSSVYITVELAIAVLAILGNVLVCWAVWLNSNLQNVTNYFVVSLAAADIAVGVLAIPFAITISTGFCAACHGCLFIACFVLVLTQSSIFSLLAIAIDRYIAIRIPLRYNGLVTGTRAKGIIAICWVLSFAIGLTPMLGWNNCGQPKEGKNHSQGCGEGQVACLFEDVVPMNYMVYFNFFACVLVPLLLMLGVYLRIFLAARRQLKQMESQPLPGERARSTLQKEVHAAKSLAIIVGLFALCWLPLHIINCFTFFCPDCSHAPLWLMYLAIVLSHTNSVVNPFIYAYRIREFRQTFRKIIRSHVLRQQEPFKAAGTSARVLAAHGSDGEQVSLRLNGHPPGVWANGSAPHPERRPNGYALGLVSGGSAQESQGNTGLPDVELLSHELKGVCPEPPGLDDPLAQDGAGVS

The experiment has as its target T1, human A2a receptor (Homo sapiens, UniProt P29274).
T1 construct: purchased Perkin-Elmer RBHA2AM400UA; host or cells: HEK293 cells (membranes)
The experiment is described as follows: A2a competition binding assay, Scintillation Proximity technology. To be noted: membranes from HEK293 cells expressing human A2a receptor; Ki by Cheng-Prusoff equation. Summed up: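 Membranes from HEK293 cells expressing human A2a, adenosine deaminase-treated, incubated 1 h at room temperature with compound (3000 to 0.15 nM) and 0.5 nM tritiated pyrazolotriazolopyrimidine radioligand on WGA SPA beads in Ca/Mg-free PBS + 10 mM MgCl2. Non-specific binding with 1 μM CGS15943; Ki by Cheng-Prusoff.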
For orientation: Scintillation proximity formats need no separation of bound from free tracer.
`Cc1nc(C(=O)NCc2cc(C(F)F)cc(C(F)F)n2)c(N)nc1-c1ncco1` [Ex-63, 3-amino-N-{[4,6-bis(difluoromethyl)pyridin-2-yl]methyl}-6-methyl-5-(1,3-oxazol-2-yl)pyrazine-2-carboxamide]: the Ki – broadly, the equilibrium dissociation constant of an inhibitor or competing ligand from its target – came to 2.52 nM. In other words, the single-digit nanomolar range.
As for `Cc1nc(C(=O)NCc2cccnc2O)c(N)nc1-c1ncco1` [Ex-64, 3-amino-N-[(2-hydroxypyridin-3-yl)methyl]-6-methyl-5-(1,3-oxazol-2-yl)pyrazine-2-carboxamide], the affinity, expressed as Ki, was 1.5 nM. Against the preceding molecule, the Ki is about 1.7-fold lower.
As for `Cc1nc(C(=O)NCc2cccnc2Cl)c(N)nc1-c1ncco1` [Ex-65, 3-amino-N-[(2-chloropyridin-3-yl)methyl]-6-methyl-5-(1,3-oxazol-2-yl)pyrazine-2-carboxamide], the figure is 4.19 nM; as for `Cc1nc(C(=O)NC2CCN(c3ncccn3)CC2)c(N)nc1-c1ncco1` [Ex-66, 3-amino-6-methyl-5-(1,3-oxaol-2-yl)-N-(1-pyrimidin-2-ylpiperidin-4-yl)pyrazine-2-carboxamide], 24.4 nM.
The molecule `Cc1cnccc1CNC(=O)c1nc(C)c(-c2ncco2)nc1N` [Ex-67, 3-amino-6-methyl-N-[(3-methylpyridin-4-yl)methyl]-5-(1,3-oxazol-2-yl)pyrazine-2-carboxamide] displayed a Ki of 64.1 nM. Against the preceding molecule, the Ki is about 2.6-fold higher.
Under `Cc1nc(C(=O)NCC(=O)N2CCC2)c(N)nc1-c1ncco1` [Ex-68, 3-amino-N-(2-azetidin-1-yl-2-oxoethyl)-6-methyl-5-(1,3-oxazol-2-yl)pyrazine-2-carboxamide] stands 27.3 nM.
`Cc1nc(C(=O)NCc2cncnc2)c(N)nc1-c1ncco1` [Ex-69, 3-amino-6-methyl-5-(1,3-oxazol-2-yl)-N-(pyrimidin-5-ylmethyl)pyrazine-2-carboxamide] displayed a Ki of 56.5 nM. This Ki lies about 2.1-fold higher than the previous one.
As for `Cc1ccc(CNC(=O)c2nc(C)c(-c3ncco3)nc2N)c(C)n1` [Ex-70, 3-amino-N-[(2,6-dimethylpyridin-3-yl)methyl]-6-methyl-5-(1,3-oxazol-2-yl)pyrazine-2-carboxamide], the figure is 41 nM; as for `Cc1nc(C)c(CNC(=O)c2nc(C)c(-c3ncco3)nc2N)s1` [Ex-71, 3-amino-N-[(2,4-dimethyl-1,3-thiazol-5-yl)methyl]-6-methyl-5-(1,3-oxazol-2-yl)pyrazine-2-carboxamide], 23.8 nM; as for `Cc1nc(C(=O)NCc2ncccc2Cl)c(N)nc1-c1ncco1` [Ex-72, 3-amino-N-[(3-chloropyridin-2-yl)methyl]-6-methyl-5-(1,3-oxazol-2-yl)pyrazine-2-carboxamide], 0.287 nM.
Under `Cc1cnc(F)c(CNC(=O)c2nc(C)c(-c3ncco3)nc2N)c1` [Ex-73, 3-amino-N-[(2-fluoro-5-methylpyridin-3-yl)methyl]-6-methyl-5-(1,3-oxazol-2-yl)pyrazine-2-carboxamide] stands 4.64 nM.
As for `Cc1nc(C(=O)NCc2ncc(Cl)cc2F)c(N)nc1-c1ncco1` [Ex-74, 3-amino-N-[(5-chloro-3-fluoropyridin-2-yl)methyl]-6-methyl-5-(1,3-oxazol-2-yl)pyrazine-2-carboxamide], the figure is 2.27 nM; as for `Cc1nc(C(=O)NCc2cc(C(F)F)nc(C(F)F)c2)c(N)nc1-c1ncco1` [Ex-75, 3-amino-N-{[2,6-bis(difluoromethyl)pyridin-4-yl]methyl}-6-methyl-5-(1,3-oxazol-2-yl)pyrazine-2-carboxamide], 40.4 nM; as for `Cc1nc(C(=O)NCc2ccncn2)c(N)nc1-c1ncco1` [Ex-76, 3-amino-6-methyl-5-(1,3-oxazol-2-yl)-N-(pyrimidin-4-ylmethyl)pyrazine-2-carboxamide], 50.1 nM.
As to `Cc1cn(C)nc1CNC(=O)c1nc(C)c(-c2ncco2)nc1N` [Ex-77, 3-amino-N-[(1,4-dimethyl-1H-pyrazol-3-yl)methyl]-6-methyl-5-(1,3-oxazol-2-yl)pyrazine-2-carboxamide], the Ki is 0.828 nM.
Under `Cc1nc(C(=O)NCc2cnn(C)c2C)c(N)nc1-c1ncco1` [Ex-78, 3-amino-N-[(1,5-dimethyl-1H-pyrazol-4-yl)methyl]-6-methyl-5-(1,3-oxazol-2-yl)pyrazine-2-carboxamide] stands 5.72 nM; under `CCn1ccnc1CNC(=O)c1nc(C)c(-c2ncco2)nc1N` [Ex-79, 3-amino-N-[(1-ethyl-1H-imidazol-2-yl)methyl]-6-methyl-5-(1,3-oxazol-2-yl)pyrazine-2-carboxamide], 0.34 nM.
Under `COc1ccc(C)c(CNC(=O)c2nc(C)c(-c3ncco3)nc2N)n1` [Ex-80, 3-amino-N-[(6-methoxy-3-methylpyridin-2-yl)methyl]-6-methyl-5-(1,3-oxazol-2-yl)pyrazine-2-carboxamide] stands 1.59 nM; under `Cc1cc(C)nc(CNC(=O)c2nc(C)c(-c3ncco3)nc2N)n1` [Ex-81, 3-amino-N-[(4,6-dimethylpyrimidin-2-yl)methyl]-6-methyl-5-(1,3-oxazol-2-yl)pyrazine-2-carboxamide], 2.8 nM; under `Cc1nc(C(=O)NC2CCC(F)(F)CC2)c(N)nc1-c1ncco1` [Ex-83, 3-amino-N-(4,4-difluorocyclohexyl)-6-methyl-5-(1,3-oxazol-2-yl)pyrazine-2-carboxamide], 3.18 nM.
Under `Cc1nc(C(=O)NCc2cccc(C(C)C)n2)c(N)nc1-c1ncco1` [Ex-85, 3-amino-6-methyl-N-{[6-(1-methylethyl)pyridin-2-yl]methyl}-5-(1,3-oxazol-2-yl)pyrazine-2-carboxamide] stands 0.7 nM; under `Cc1nc(C(=O)NCc2nccn2C(C)C)c(N)nc1-c1ncco1` [Ex-87, 3-amino-6-methyl-N-{[1-(1-methylethyl)-1H-imidazol-2-yl]methyl}-5-(1,3-oxazol-2-yl)pyrazine-2-carboxamide], 0.471 nM.
In the case of `Cc1ccc(CNC(=O)c2nc(C)c(-c3ncco3)nc2N)nc1-c1ccccn1` [Ex-88, 3-amino-6-methyl-N-[(3-methyl-2,2′-bipyridin-6-yl)methyl]-5-(1,3-oxazol-2-yl)pyrazine-2-carboxamide], the Ki worked out at 6.16 nM.
As for `Cc1ccc(C(C)C)nc1CNC(=O)c1nc(C)c(-c2ncco2)nc1N` [Ex-89, 3-amino-6-methyl-N-{[3-methyl-6-(1-methylethyl)pyridin-2-yl]methyl}-5-(1,3-oxazol-2-yl)pyrazine-2-carboxamide], the figure is 0.746 nM; as for `CCOCCc1ccc(C)c(CNC(=O)c2nc(C)c(-c3ncco3)nc2N)n1` [Ex-90, 3-amino-N-{[6-(2-ethoxyethyl)-3-methylpyridin-2-yl]methyl}-6-methyl-5-(1,3-oxazol-2-yl)pyrazine-2-carboxamide], 4.95 nM; as for `Cc1nc(C(=O)NCc2cccn(CC(F)F)c2=O)c(N)nc1-c1ncco1` [Ex-91, 3-amino-N-{[1-(2,2-difluoroethyl)-2-oxo-1,2-dihydropyridin-3-yl]methyl}-6-methyl-5-(1,3-oxazol-2-yl)pyrazine-2-carboxamide], 2.93 nM.
As for `Cc1nc(C(=O)NCc2nc(C(F)(F)F)cn2C)c(N)nc1-c1ncco1` [Ex-92, 3-amino-6-methyl-N-{[1-methyl-4-(trifluoromethyl)-1H-imidazol-2-yl]methyl}-5-(1,3-oxazol-2-yl)pyrazine-2-carboxamide], the figure is 11.4 nM.
Under `Cc1nc(C(=O)NCC2(C#N)CCC2)c(N)nc1-c1ncco1` [Ex-93, 3-amino-N-[(1-cyanocyclobutyl)methyl]-6-methyl-5-(1,3-oxazol-2-yl)pyrazine-2-carboxamide] stands 4 nM; under `Cc1nc(C(=O)NCc2cccc3cc[nH]c23)c(N)nc1-c1ncco1` [Ex-95, 3-amino-N-(1H-indol-7-ylmethyl)-6-methyl-5-(1,3-oxazol-2-yl)pyrazine-2-carboxamide], 0.276 nM.
In turn, `Cc1nc(C(=O)NCc2cnc3ccccn23)c(N)nc1-c1ncco1` [Ex-96, 3-amino-N-(imidazo-[1,2-a]pyridin-3-yl-methyl)-6-methyl-5-(1,3-oxazol-2-yl)-pyrazine-2-carboxamide] displayed a Ki of 12.8 nM. Compared with the last molecule, the Ki is about 46-fold higher.
The molecule `Cc1nc(C(=O)NCc2c(C)nc3ccccn23)c(N)nc1-c1ncco1` [Ex-97, 3-amino-6-methyl-N-[(2-methylimidazo[1,2-a]pyridin-3-yl)methyl]-5-(1,3-oxazol-2-yl)pyrazine-2-carboxamide] yielded a Ki of 35.2 nM.
As for `Cc1nc(C(=O)NCc2ccc3c(n2)NCCC3)c(N)nc1-c1ncco1` [Ex-98, 3-amino-6-methyl-5-(1,3-oxazol-2-yl)-N-(5,6,7,8-tetrahydro-1,8-naphthyridin-2-ylmethyl)pyrazine-2-carboxamide], the figure is 2.93 nM; as for `Cc1nc(C(=O)NCc2ccc[n+]([O-])c2)c(N)nc1-c1ncco1` [Ex-99, 3-amino-6-methyl-5-(1,3-oxazol-2-yl)-N-[(1-oxidopyridin-3-yl)methyl]pyrazine-2-carboxamide], 208 nM; as for `Cc1nc(C(=O)NCc2ncn(CC3CC3)c2C)c(N)nc1-c1ncco1` [Ex-100, 3-amino-N-{[1-(cyclopropylmethyl)-5-methyl-1H-imidazol-4-yl]methyl}-6-methyl-5-(1,3-oxazol-2-yl)pyrazine-2-carboxamide], 110 nM.
In the case of `Cc1nc(C(=O)N[C@H]2CC[C@@H](C(F)(F)F)CC2)c(N)nc1-c1ncco1` [Ex-101, 3-amino-6-methyl-5-(1,3-oxazol-2-yl)-N-[cis-4-(trifluoromethyl)cyclohexyl] pyrazine-2-carboxamide], the Ki came out at 12.9 nM.
As for `Cc1ccc2nc(CNC(=O)c3nc(C)c(-c4ncco4)nc3N)cn2c1` [Ex-102, 3-amino-6-methyl-N-[(6-methylimidazo[1,2-a]pyridin-2-yl)methyl]-5-(1,3-oxazol-2-yl)pyrazine-2-carboxamide], the figure is 11.9 nM.
Under `Cc1nc(C(=O)NCc2n[nH]c3c2CCC3)c(N)nc1-c1ncco1` [Ex-103, 3-amino-6-methyl-5-(1,3-oxazol-2-yl)-N-(1,4,5,6-tetrahydrocyclopenta[c]pyrazol-3-ylmethyl)pyrazine-2-carboxamide] stands 0.353 nM.
